The subject of the data set is human growth hormone receptor mRNA. Kind of data set: Inhibition of human growth hormone receptor mRNA levels in MCF7 cells, quantitative real-time PCR. In kind it is cell-based. Also on record: concentration or dose not given beside the values. The following applies: averages from three experiments. On the procedure: The human breast carcinoma cell line MCF-7 was obtained from the American Type Culture Collection (Manassas, Va.). MCF-7 cells were routinely cultured in DMEM low glucose (Gibco/Life Technologies, Gaithersburg, Md.) supplemented with 10% fetal calf serum (Gibco/Life Technologies, Gaithersburg, Md.). Cells were routinely passaged by trypsinization and dilution when they reached 90% confluence. Cells were seeded into 96-well plates (Falcon-Primaria #3872) at a density of 7000 cells/well for use in RT-PCR analysis.
When cells reached 65-75% confluency, they were treated with oligonucleotide. For cells grown in 96-well plates, wells were washed once with 100 μL OPTI-MEM™-1 reduced-serum medium (Invitrogen Corporation, Carlsbad, Calif.) and then treated with 130 μL of OPTI-MEM™-1 containing 3.75 μg/mL LIPOFECTIN™ (Invitrogen Corporation, Carlsbad, Calif.) and the desired concentration of oligonucleotide. Cells are treated and data are obtained in triplicate. After 4-7 hours of treatment at 37° C., the medium was replaced with fresh medium. Cells were harvested 16-24 hours after oligonucleotide treatment.
Total RNA was isolated using an RNEASY 96™ kit and buffers purchased from Qiagen Inc. (Valencia, Calif.) following the manufacturer's recommended procedures. Briefly, for cells grown on 96-well plates, growth medium was removed from the cells and each well was washed with 200 μL cold PBS. 150 μL Buffer RLT was added to each well and the plate vigorously agitated for 20 seconds. 150 μL of 70% ethanol was then added to each well and the contents mixed by pipetting three times up and down. The samples were then transferred to the RNEASY 96™ well plate attached to a QIAVAC™ manifold fitted with a waste collection tray and attached to a vacuum source. Vacuum was applied for 1 minute. 500 μL of Buffer RW1 was added to each well of the RNEASY 96™ plate and incubated for 15 minutes and the vacuum was again applied for 1 minute. An additional 500 μL of Buffer RW1 was added to each well of the RNEASY 96™ plate and the vacuum was applied for 2 minutes. 1 mL of Buffer RPE was then added to each well of the RNEASY 96™ plate and the vacuum applied for a period of 90 seconds. The Buffer RPE wash was then repeated and the vacuum was applied for an additional 3 minutes. The plate was then removed from the QIAVAC™ manifold and blotted dry on paper towels. The plate was then re-attached to the QIAVAC™ manifold fitted with a collection tube rack containing 1.2 mL collection tubes. RNA was then eluted by pipetting 140 μL of RNAse free water into each well, incubating 1 minute, and then applying the vacuum for 3 minutes.
Quantitation of growth hormone receptor mRNA levels was accomplished by real-time quantitative PCR using the ABI PRISM™ 7600, 7700, or 7900 Sequence Detection System (PE-Applied Biosystems, Foster City, Calif.) according to manufacturer's instructions. This is a closed-tube, non-gel-based, fluorescence detection system which allows high-throughput quantitation of polymerase chain reaction (PCR) products in real-time. As opposed to standard PCR in which amplification products are quantitated after the PCR is completed, products in real-time quantitative PCR are quantitated as they accumulate. This is accomplished by including in the PCR reaction an oligonucleotide probe that anneals specifically between the forward and reverse PCR primers, and contains two fluorescent dyes. A reporter dye (e.g., FAM or JOE, obtained from either PE-Applied Biosystems, Foster City, Calif., Operon Technologies Inc., Alameda, Calif. or Integrated DNA Technologies Inc., Coralville, Iowa) is attached to the 5′ end of the probe and a quencher dye (e.g., TAMRA, obtained from either PE-Applied Biosystems, Foster City, Calif., Operon Technologies Inc., Alameda, Calif. or Integrated DNA Technologies Inc., Coralville, Iowa) is attached to the 3′ end of the probe. When the probe and dyes are intact, reporter dye emission is quenched by the proximity of the 3′ quencher dye. […]
A general note: Real-time PCR tracks product formation cycle by cycle.

In the oligonucleotide strings, read from the 5' end, every base follows the letter of its sugar. An asterisk marks phosphorothioate; unmarked linkages are phosphodiester. Other units and linkages are bracketed, terminal groups are in braces. A string of capitals states the bases alone. e = 2'-O-(2-methoxyethyl) (MOE); [5mC] = 5-methylcytosine; d = 2'-deoxy (DNA)

As for “227482 (antisense eT*eT*e[5mC]*eT*eG*dT*dG*dG*dT*dG*dA*dT*dG*dT*dA*eA*eA*eT*eG*eT) [compound 227482]”, the “% INHIB of human growth hormone receptor mRNA levels” value (“% INHIB” for short) turned out to be 53%.
Turning to “272337 (antisense eA*eA*eA*e[5mC]*eA*dT*dA*dG*d[5mC]*d[5mC]*dA*dT*dT*d[5mC]*dA*eA*eT*eG*e[5mC]*eT) [compound 272337]”, the “% INHIB” value was 39%.
Take “272325 (antisense eA*eA*eG*eG*e[5mC]*dA*dT*dA*dA*dG*dA*dG*dA*dT*d[5mC]*eT*eG*e[5mC]*eT*eT) [compound 272325]”: the “% INHIB” value came out at 66%.
With “227480 (antisense eA*eT*eG*eT*eA*dA*dA*dT*dG*dT*d[5mC]*d[5mC]*dT*d[5mC]*dT*eT*eG*eG*eT*eT) [compound 227480]”, the “% INHIB” value came out at 66%.
Regarding “272354 (antisense eA*eG*eT*eT*eA*dT*dG*dT*dG*dA*d[5mC]*d[5mC]*d[5mC]*dT*dG*eA*eT*eT*eG*eA) [compound 272354]”, the “% INHIB” value stood at 65%.
Then “272306 (antisense eT*eT*eA*eG*eA*dA*dG*dA*dA*dT*dT*dT*dG*dT*d[5mC]*eT*eT*eT*eA*eG) [compound 272306]”, with 13%; and “272312 (antisense eG*eG*eG*eT*eG*dG*dA*dT*d[5mC]*dT*dG*dG*dT*dT*dG*e[5mC]*eA*e[5mC]*eT*eA) [compound 272312]”, with 57%.
In the case of “272334 (antisense eA*eA*eG*eA*eA*dA*dG*dG*d[5mC]*dT*dA*dA*dG*dG*d[5mC]*eA*eT*eG*eA*eT) [compound 272334]”, the “% INHIB” value was 61%.
Then “272347 (antisense eT*e[5mC]*eT*eA*e[5mC]*dA*d[5mC]*dT*dG*dA*dT*dG*dA*dT*dA*e[5mC]*eT*eT*eT*eA) [compound 272347]”, with 62%; and “227452 (antisense eT*e[5mC]*eA*eG*eG*dG*d[5mC]*dA*dT*dT*d[5mC]*dT*dT*dT*d[5mC]*e[5mC]*eA*eT*eT*e[5mC]) [compound 227452]”, with 79%; and “272344 (antisense eA*e[5mC]*eA*e[5mC]*eT*d[5mC]*dA*dA*dT*dT*d[5mC]*dT*dA*dG*d[5mC]*eT*eT*eT*eT*e[5mC]) [compound 272344]”, with 60%.
As to “272305 (antisense eT*eT*eG*eT*e[5mC]*dT*dT*dT*dA*dG*dG*d[5mC]*d[5mC]*dT*dG*eG*eA*eT*eT*eA) [compound 272305]”, the “% INHIB” value came to 68%.
Then “227501 (antisense eG*e[5mC]*eT*eA*eT*dT*dT*dT*dT*dG*dG*d[5mC]*dT*dA*dT*eA*eG*eA*eA*eA) [compound 227501]”, with 64%; and “272345 (antisense e[5mC]*eA*eT*e[5mC]*eT*dA*dT*dT*dA*d[5mC]*dA*dA*dA*dT*dA*eA*e[5mC]*eA*eT*eG) [compound 272345]”, with 24%; and “227469 (antisense e[5mC]*eT*eT*eA*eG*dA*dA*dG*dT*d[5mC]*dT*dG*dT*d[5mC]*dT*eG*eT*eG*eT*e[5mC]) [compound 227469]”, with 63%.
Turning to “272358 (antisense eT*e[5mC]*eT*e[5mC]*e[5mC]*dA*dG*dA*dT*dA*dG*dA*dA*dT*d[5mC]*eT*eA*eA*eA*e[5mC]) [compound 272358]”, the “% INHIB” value was found to be 53%.
“227490 (antisense eG*e[5mC]*eA*eT*eG*dA*dT*dT*dT*dT*dG*dT*dT*d[5mC]*dA*eG*eT*eT*eG*eG) [compound 227490]”: the “% INHIB” value was 67%.
Turning to “272326 (antisense eA*e[5mC]*eT*e[5mC]*eA*dG*d[5mC]*dT*d[5mC]*d[5mC]*dT*dT*d[5mC]*dA*dG*eT*eA*eG*eG*eA) [compound 272326]”, the “% INHIB” value was 77%.
“227499 (antisense eT*eA*eT*eA*eA*dA*dA*dG*dG*dG*d[5mC]*dT*dT*dT*dG*eT*eA*eA*eA*eA) [compound 227499]”: the “% INHIB” value turned out to be 14%.
As to “272340 (antisense e[5mC]*eA*eT*e[5mC]*eA*dA*d[5mC]*d[5mC]*dA*dA*dG*dA*dT*dT*dT*eG*eG*eT*eG*eA) [compound 272340]”, the “% INHIB” value came to 69%.
Then “272351 (antisense eA*eT*eA*eG*eA*dA*dA*dT*dG*dT*dT*dG*dT*d[5mC]*dA*eG*eG*e[5mC]*eT*eG) [compound 272351]”, with 57%; and “272332 (antisense e[5mC]*eT*e[5mC]*eT*eT*dT*dG*dT*d[5mC]*dA*dG*dG*d[5mC]*dA*dA*eG*eG*eG*e[5mC]*eA) [compound 272332]”, with 75%.
Take “272317 (antisense eA*eG*e[5mC]*e[5mC]*e[5mC]*dA*dA*dA*dT*dA*dT*dT*d[5mC]*d[5mC]*dA*eA*eA*eG*eA*eT) [compound 272317]”: the “% INHIB” value is 65%.
As for “227468 (antisense eT*e[5mC]*eA*eT*e[5mC]*dA*dA*dT*dA*dT*d[5mC]*dT*dA*dG*d[5mC]*eT*e[5mC]*eA*eA*eT) [compound 227468]”, the “% INHIB” value stood at 62%.
Then “272342 (antisense eT*eA*eG*eT*eG*dA*dG*dA*dA*dA*dG*dA*dA*dA*dG*eT*eT*eT*e[5mC]*eT) [compound 272342]”, with 45%; and “272310 (antisense eT*eT*eT*e[5mC]*eA*dT*d[5mC]*d[5mC]*dA*d[5mC]*dT*dG*dT*dA*d[5mC]*e[5mC]*eA*e[5mC]*e[5mC]*eA) [compound 272310]”, with 76%.
“272350 (antisense eA*eG*eG*e[5mC]*eT*dG*dT*dT*dG*dT*dG*dA*dA*dA*dT*eA*eG*eT*eA*eA) [compound 272350]”: the “% INHIB” value worked out at 67%.
“272336 (antisense e[5mC]*eA*eA*eT*e[5mC]*dA*d[5mC]*dT*dG*d[5mC]*dT*dA*d[5mC]*dT*dA*eA*eA*e[5mC]*eA*eG) [compound 272336]”: the “% INHIB” value is reported as 69%.
As for “272361 (antisense eA*eT*eT*eT*eT*d[5mC]*d[5mC]*dT*dT*d[5mC]*d[5mC]*dT*dA*dG*dA*eA*eA*eA*eT*eA) [compound 272361]”, the “% INHIB” value is reported as 10%.
In the case of “272349 (antisense eA*eG*eT*e[5mC]*eT*dT*d[5mC]*d[5mC]*dA*dA*dA*d[5mC]*dA*d[5mC]*dA*e[5mC]*eA*eG*e[5mC]*eT) [compound 272349]”, the “% INHIB” value is 68%.
As for “272323 (antisense eT*eG*eT*eG*eT*d[5mC]*dT*dG*dA*dT*dT*d[5mC]*d[5mC]*dT*d[5mC]*eA*eG*eT*e[5mC]*eT) [compound 272323]”, the “% INHIB” value was 67%.
Then “227500 (antisense e[5mC]*eA*eT*eA*eG*d[5mC]*dA*dG*d[5mC]*dA*dA*dA*dG*dT*dA*eG*e[5mC]*eA*eG*eA) [compound 227500]”, with 69%.
For “272335 (antisense eA*eA*eA*eT*eA*d[5mC]*dG*dT*dA*dG*d[5mC]*dT*d[5mC]*dT*dT*eG*eG*eG*eA*eA) [compound 272335]”, the “% INHIB” value came out at 47%.
On to “227488 (antisense eA*eG*eT*eT*eG*dG*dT*d[5mC]*dT*dG*dT*dG*d[5mC]*dT*d[5mC]*eA*e[5mC]*eA*eT*eA) [compound 227488]”, for which the “% INHIB” value amounted to 86%.

The values above are taken from patent publication US9988635B2, “Modulation of growth hormone receptor expression and insulin-like growth factor expression” (Antisense Therapeutics Limited, priority 2003, dated 2018).
